Patent US12723063B2, “GIPR-agonist compounds” (Eli Lilly and Company, priority 2019, dated 2026)
*1 amine or outer side, *2 acyl side, *3 side chain or, on linkers, in order; H or OH if unused. Where a SMILES comes first, the peptide text is derived from it. Side-chain parts run from the residue outwards. [ ]: non-standard residue; d: D form. The star is where a group is joined. C20 diacid = O=C(O)CCCCCCCCCCCCCCCCCCC(=O)*; C18 diacid = O=C(O)CCCCCCCCCCCCCCCCC(=O)*; γGlu = O=C(O)[C@H](CCC(=O)[*:2])N[*:1]; AEEA = NCCOCCOCC(=O)O; Aib = CC(C)(N)C(=O)O

Legend:
[1] = biological target: T1, human GLP-1R (Homo sapiens, UniProt P43220); assay: [125I]-GLP-1 binding, SPA with WGA beads, 0.1% bacitracin; conditions: geometric mean, read-out: hGLP1R Ki
T1 construct: expressed in transfected cells; crude membranes
T1 sequence (P43220 24-463): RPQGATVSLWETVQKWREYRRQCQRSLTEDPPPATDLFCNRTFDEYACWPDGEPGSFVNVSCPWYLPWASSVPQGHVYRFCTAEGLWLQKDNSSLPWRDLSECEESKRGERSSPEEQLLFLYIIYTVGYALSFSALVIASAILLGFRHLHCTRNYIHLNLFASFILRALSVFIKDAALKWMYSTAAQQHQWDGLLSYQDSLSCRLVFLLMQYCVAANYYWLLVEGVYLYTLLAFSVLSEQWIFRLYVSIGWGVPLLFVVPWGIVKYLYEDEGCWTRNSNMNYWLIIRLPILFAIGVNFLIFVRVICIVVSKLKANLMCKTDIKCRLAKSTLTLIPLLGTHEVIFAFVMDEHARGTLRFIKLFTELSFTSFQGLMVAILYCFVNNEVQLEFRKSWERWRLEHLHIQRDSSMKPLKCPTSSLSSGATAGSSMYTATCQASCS
Protocol: (§1) Stably transfected cell lines are prepared by subcloning receptor cDNA into a pcDNA3 expression plasmid and transfected into human embryonic kidney (HEK) 293 (hGcgR and hGLP-1R) or Chinese Hamster Ovary (CHO) (hGIPR) cells followed by selection with Geneticin (hGLP-1R and hGIPR) or hygromycin B (hGcgR).
(§2) Two methods are used for the preparation of crude cell membranes.
(§3) Method 1: Frozen cell pellets are lysed on ice in hypotonic buffer containing 50 mM Tris HCl, pH 7.5, and Roche Complete™ Protease Inhibitors with EDTA. The cell suspension is disrupted using a glass Potter-Elvehjem homogenizer fitted with a Teflon® pestle for 25 strokes. The homogenate is centrifuged at 4° C. at 1100× g for 10 minutes. The supernatant is collected and stored on ice while the pellets are resuspended in homogenization buffer and rehomogenized as described above. The homogenate is centrifuged at 1100× g for 10 minutes. The second supernatant is combined with the first supernatant and centrifuged at 35000× g for 1 hour at 4° C. The resulting membrane pellet is resuspended in homogenization buffer containing protease inhibitors at approximately 1 to 3 mg/mL, quick frozen in liquid nitrogen and stored as aliquots in a −80° C. freezer until use.
(§4) Method 2: Frozen cell pellets are lysed on ice in hypotonic buffer containing 50 mM Tris HCl, pH 7.5, 1 mM MgCl2, Roche Complete™ EDTA-free Protease Inhibitors and 25 units/mL DNAse I (Invitrogen). The cell suspension is disrupted using a glass Potter-Elvehjem homogenizer fitted with a Teflon® pestle for 20 to 25 strokes. The homogenate is centrifuged at 4° C. at 1800× g for 15 minutes. The supernatant is collected and stored on ice while the pellets are resuspended in homogenization buffer (without DNAse I) and rehomogenized as described above. The homogenate is centrifuged at 1800× g for 15 minutes. The second supernatant is combined with the first supernatant and centrifuged an additional time at 1800× g for 15 minutes. The overall supernatant is then centrifuged at 25000× g for 30 minutes at 4° C. The resulting membrane pellet is resuspended in homogenization buffer (without DNAse I) containing protease inhibitors at approximately 1 to 3 mg/mL and stored as aliquots in a −80° C. freezer until use.
The binding buffer contains 25 mM HEPES, pH 7.4, 2.5 mM CaCl2), 1 mM MgCl2, 0.1% (w/v) bacitracin, 0.003% (w/v) TWEEN®-20, and Roche Complete™ Protease Inhibitors without EDTA.
(§5) Data are analyzed using four-parameter (curve maximum, curve minimum, IC50, Hill slope) nonlinear regression routines (Genedata Screener, version 12.0.4, Genedata AG, Basal, Switzerland). […] Values for Ki are reported as the geometric mean, with error expressed as the standard error of the mean (SEM) and n is equal to the number of independent replicates (determined in assays performed on different days). […] SEM is only calculated when […] or greater. Means are expressed as geometric means with the standard error of the mean (SEM) and the number of replicates (n) indicated in parentheses.

[2] = biological target: T2, human GIPR (Homo sapiens, UniProt P48546); assay: [125I]-GIP binding, SPA with WGA beads, 0.1% bacitracin; conditions: geometric mean, read-out: hGIPR Ki
T2 construct: expressed in transfected cells; crude membranes
T2 sequence (P48546 22-466): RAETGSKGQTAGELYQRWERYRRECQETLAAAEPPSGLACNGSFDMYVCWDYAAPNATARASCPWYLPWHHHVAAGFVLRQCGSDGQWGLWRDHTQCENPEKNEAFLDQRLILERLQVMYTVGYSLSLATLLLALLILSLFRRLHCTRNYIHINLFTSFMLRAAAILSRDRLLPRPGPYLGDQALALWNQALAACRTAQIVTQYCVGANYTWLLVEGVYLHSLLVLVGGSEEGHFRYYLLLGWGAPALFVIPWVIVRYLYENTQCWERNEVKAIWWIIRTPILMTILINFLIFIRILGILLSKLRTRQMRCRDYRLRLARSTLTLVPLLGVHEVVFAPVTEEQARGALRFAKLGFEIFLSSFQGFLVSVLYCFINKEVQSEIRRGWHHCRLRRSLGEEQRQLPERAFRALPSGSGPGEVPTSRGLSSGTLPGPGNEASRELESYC
Protocol: as §1, §2, §3, §4
The binding buffer contains 25 mM HEPES, pH 7.4, 2.5 mM CaCl2), 1 mM MgCl2, 0.1% (w/v) bacitracin, 0.003% (w/v) TWEEN®-20, and Roche Complete™ Protease Inhibitors without EDTA. […] Plates are sealed and mixed on a plate shaker (setting 6) for 1 minute and read with a PerkinElmer Trilux MicroBeta® scintillation counter after 2.5 to 12 hours of incubation/settling time at room temperature.
as §5

Row | SMILES | Ki [1] [pM] | Ki [2] [pM]
1 | CC[C@H](C)[C@H](NC(=O)[C@H](CO)NC(=O)[C@H](Cc1ccc(O)cc1)NC(=O)[C@H](CC(=O)O)NC(=O)[C@H](CO)NC(=O)[C@@H](NC(=O)[C@H](Cc1ccccc1)NC(=O)[C@@H](NC(=O)CNC(=O)[C@H](CCC(=O)O)NC(=O)[C@@H](C)NC(=O)[C@@H](N)Cc1ccc(O)cc1)[C@@H](C)O)[C@@H](C)CC)C(=O)N[C@@H](CC(C)C)C(=O)N[C@@H](CC(C)C)C(=O)N[C@@H](CC(=O)O)C(=O)N[C@@H](CCCCN)C(=O)N[C@@H](CCCCNC(=O)COCCOCCNC(=O)COCCOCCNC(=O)CC[C@H](NC(=O)CCCCCCCCCCCCCCCCCCC(=O)O)C(=O)O)C(=O)N[C@@H](Cc1c[nH]cn1)C(=O)N[C@@H](CCC(N)=O)C(=O)N[C@@H](CCC(N)=O)C(=O)N[C@@H](CCC(=O)O)C(=O)N[C@@H](Cc1ccccc1)C(=O)N[C@H](C(=O)N[C@@H](CC(N)=O)C(=O)N[C@@H](Cc1c[nH]c2ccccc12)C(=O)N[C@@H](CC(C)C)C(=O)N[C@@H](CC(C)C)C(=O)N[C@@H](C)C(=O)N[C@@H](CCC(N)=O)C(=O)NCC(=O)N1CCC[C@H]1C(=O)N[C@@H](CO)C(=O)N[C@@H](CO)C(=O)NCC(=O)N[C@@H](C)C(=O)N1CCC[C@H]1C(=O)N1CCC[C@H]1C(=O)N1CCC[C@H]1C(=O)N[C@@H](CO)C(N)=O)C(C)C [Example 13] (H-Y[dA]EGTFISDYSILLDKK([AEEA-AEEA-γGlu-C20 diacid])HQQEFVNWLLAQGPSSGAPPPS-NH2) | > 213000 | 237
2 | CC[C@H](C)[C@H](NC(=O)[C@H](CO)NC(=O)[C@H](Cc1ccc(O)cc1)NC(=O)[C@H](CC(=O)O)NC(=O)[C@H](CO)NC(=O)[C@@H](NC(=O)[C@H](Cc1ccccc1)NC(=O)[C@@H](NC(=O)CNC(=O)[C@H](CCC(=O)O)NC(=O)[C@@H](C)NC(=O)[C@@H](N)Cc1ccc(O)cc1)[C@@H](C)O)[C@@H](C)CC)C(=O)N[C@@H](CC(C)C)C(=O)N[C@@H](CC(C)C)C(=O)N[C@@H](CC(=O)O)C(=O)N[C@@H](CCCCN)C(=O)N[C@@H](CCCCNC(=O)COCCOCCNC(=O)COCCOCCNC(=O)CC[C@H](NC(=O)CCCCCCCCCCCCCCCCCCC(=O)O)C(=O)O)C(=O)N[C@@H](Cc1c[nH]cn1)C(=O)N[C@@H](CCC(N)=O)C(=O)N[C@@H](CCC(N)=O)C(=O)N[C@@H](CC(=O)O)C(=O)N[C@@H](Cc1ccccc1)C(=O)N[C@H](C(=O)N[C@@H](CCC(=O)O)C(=O)N[C@@H](Cc1c[nH]c2ccccc12)C(=O)N[C@@H](CC(C)C)C(=O)N[C@@H](CC(C)C)C(=O)N[C@@H](C)C(=O)N[C@@H](CCC(N)=O)C(=O)NCC(=O)N1CCC[C@H]1C(=O)N[C@@H](CO)C(=O)N[C@@H](CO)C(=O)NCC(=O)N[C@@H](C)C(=O)N1CCC[C@H]1C(=O)N1CCC[C@H]1C(=O)N1CCC[C@H]1C(=O)N[C@@H](CO)C(N)=O)C(C)C [Example 14] (H-Y[dA]EGTFISDYSILLDKK([AEEA-AEEA-γGlu-C20 diacid])HQQDFVEWLLAQGPSSGAPPPS-NH2) | > 213000 | 460
3 | CC[C@H](C)[C@H](NC(=O)[C@H](CO)NC(=O)[C@H](Cc1ccc(O)cc1)NC(=O)[C@H](CC(=O)O)NC(=O)[C@H](CO)NC(=O)[C@@H](NC(=O)[C@H](Cc1ccccc1)NC(=O)[C@@H](NC(=O)CNC(=O)[C@H](CCC(=O)O)NC(=O)[C@@H](C)NC(=O)[C@@H](N)Cc1ccc(O)cc1)[C@@H](C)O)[C@@H](C)CC)C(=O)N[C@@H](CC(C)C)C(=O)N[C@@H](CC(C)C)C(=O)N[C@@H](CC(=O)O)C(=O)N[C@@H](CCCCN)C(=O)N[C@@H](CCCCNC(=O)COCCOCCNC(=O)COCCOCCNC(=O)CC[C@H](NC(=O)CCCCCCCCCCCCCCCCCCC(=O)O)C(=O)O)C(=O)N[C@@H](Cc1c[nH]cn1)C(=O)N[C@@H](CCC(N)=O)C(=O)N[C@@H](CCC(N)=O)C(=O)N[C@@H](CC(=O)O)C(=O)N[C@@H](Cc1ccccc1)C(=O)N[C@H](C(=O)N[C@@H](CC(N)=O)C(=O)N[C@@H](Cc1ccc(O)cc1)C(=O)N[C@@H](CC(C)C)C(=O)N[C@@H](CC(C)C)C(=O)N[C@@H](C)C(=O)N[C@@H](CCC(N)=O)C(=O)NCC(=O)N1CCC[C@H]1C(=O)N[C@@H](CO)C(=O)N[C@@H](CO)C(=O)NCC(=O)N[C@@H](C)C(=O)N1CCC[C@H]1C(=O)N1CCC[C@H]1C(=O)N1CCC[C@H]1C(=O)N[C@@H](CO)C(N)=O)C(C)C [Example 15] (H-Y[dA]EGTFISDYSILLDKK([AEEA-AEEA-γGlu-C20 diacid])HQQDFVNYLLAQGPSSGAPPPS-NH2) | > 236000 | 471
4 | CC[C@H](C)[C@H](NC(=O)[C@H](CO)NC(=O)[C@H](Cc1ccc(O)cc1)NC(=O)[C@H](CC(=O)O)NC(=O)[C@H](CO)NC(=O)[C@@H](NC(=O)[C@H](Cc1ccccc1)NC(=O)[C@@H](NC(=O)CNC(=O)[C@H](CCC(=O)O)NC(=O)[C@@H](C)NC(=O)[C@@H](N)Cc1ccc(O)cc1)[C@@H](C)O)[C@@H](C)CC)C(=O)N[C@@H](CC(C)C)C(=O)N[C@@H](CC(C)C)C(=O)N[C@@H](CC(=O)O)C(=O)N[C@@H](CCCCN)C(=O)N[C@@H](CCCCNC(=O)COCCOCCNC(=O)COCCOCCNC(=O)CC[C@H](NC(=O)CCCCCCCCCCCCCCCCC(=O)O)C(=O)O)C(=O)N[C@@H](C)C(=O)N[C@@H](CCC(N)=O)C(=O)NC(C)(C)C(=O)N[C@@H](CC(=O)O)C(=O)N[C@@H](Cc1ccccc1)C(=O)N[C@H](C(=O)N[C@@H](CCC(=O)O)C(=O)N[C@@H](Cc1c[nH]c2ccccc12)C(=O)N[C@@H](CC(C)C)C(=O)N[C@@H](CC(C)C)C(=O)N[C@@H](C)C(=O)N[C@@H](CCC(N)=O)C(=O)NCC(=O)N1CCC[C@H]1C(=O)N[C@@H](CO)C(=O)N[C@@H](CO)C(=O)NCC(=O)N[C@@H](C)C(=O)N1CCC[C@H]1C(=O)N1CCC[C@H]1C(=O)N1CCC[C@H]1C(=O)N[C@@H](CO)C(N)=O)C(C)C [Example 16] (H-Y[dA]EGTFISDYSILLDKK([AEEA-AEEA-γGlu-C18 diacid])AQ[Aib]DFVEWLLAQGPSSGAPPPS-NH2) | 99200 | 43.8
5 | CC[C@H](C)[C@H](NC(=O)[C@H](CO)NC(=O)[C@H](Cc1ccc(O)cc1)NC(=O)[C@H](CC(=O)O)NC(=O)[C@H](CO)NC(=O)[C@@H](NC(=O)[C@H](Cc1ccccc1)NC(=O)[C@@H](NC(=O)CNC(=O)[C@H](CCC(=O)O)NC(=O)[C@@H](C)NC(=O)[C@@H](N)Cc1ccc(O)cc1)[C@@H](C)O)[C@@H](C)CC)C(=O)N[C@@H](CC(C)C)C(=O)N[C@@H](CC(C)C)C(=O)N[C@@H](CC(=O)O)C(=O)N[C@@H](CCCCN)C(=O)N[C@@H](CCCCNC(=O)COCCOCCNC(=O)COCCOCCNC(=O)CC[C@H](NC(=O)CCCCCCCCCCCCCCCCC(=O)O)C(=O)O)C(=O)N[C@@H](C)C(=O)N[C@@H](CCC(N)=O)C(=O)NC(C)(C)C(=O)N[C@@H](CC(=O)O)C(=O)N[C@@H](Cc1ccccc1)C(=O)N[C@H](C(=O)N[C@@H](CC(N)=O)C(=O)N[C@@H](Cc1c[nH]c2ccccc12)C(=O)N[C@@H](CC(C)C)C(=O)N[C@@H](CC(C)C)C(=O)N[C@@H](CCC(=O)O)C(=O)N[C@@H](CCC(N)=O)C(=O)NCC(=O)N1CCC[C@H]1C(=O)N[C@@H](CO)C(=O)N[C@@H](CO)C(=O)NCC(=O)N[C@@H](C)C(=O)N1CCC[C@H]1C(=O)N1CCC[C@H]1C(=O)N1CCC[C@H]1C(=O)N[C@@H](CO)C(N)=O)C(C)C [Example 17] (H-Y[dA]EGTFISDYSILLDKK([AEEA-AEEA-γGlu-C18 diacid])AQ[Aib]DFVNWLLEQGPSSGAPPPS-NH2) | 106000 | 57.1
